Measurements from patent US6471973B2 (Coletica, priority 1998, dated 2002).
Blank lines part the entries; values can stand above or below the compound they belong to.

Key:
[1] = in vivo
Procedure: This preparation is used for the following toxicity studies:
The tests were performed by the official method in accordance with the decree of Feb.

[2] = Oxidation stability test on flavonoids in complex preparations (emulsions); assay type: physicochemical; conditions: 45° C.
Procedure: Oxidation stability test on flavonoids in complex preparations (emulsions) Composition of the formulation: [table] After studying the stabilities over about 1 month, it can be said that the color of the formulations containing flavonoids used in the form which has not been rendered lipophilic undergoes an extremely unfavorable change at 45° C.

[3] = Determination of the free radical inhibiting activity in vitro; conditions: 30 minutes; for % free radical inhibiting activity: dissolved in ethoxydiglycol, control subtracted; for Free radical inhibiting activity: compound at 25 mM, dissolved in DMSO, DMSO control subtracted
Procedure: A 60 μM solution of 1,1-diphenyl-2-picrylhydrazyl in ethanol is placed in contact, for 30 minutes at room temperature, with a sample originating from the products of the invention whose free radical inhibiting power is to be determined. […] The higher the percentage decrease, the stronger will be the free radical inhibiting activity of the active ingredient tested.

[4] = molecular target: T1, human leukocytic elastase (Homo sapiens, UniProt P08246); test: Determination of the anti-elastase activity (elastin-rhodamine, fluorescence); assay type: biochemical; conditions: solubilized in ethoxydiglycol, 20 min at 37° C.
T1 sequence (P08246 30-267): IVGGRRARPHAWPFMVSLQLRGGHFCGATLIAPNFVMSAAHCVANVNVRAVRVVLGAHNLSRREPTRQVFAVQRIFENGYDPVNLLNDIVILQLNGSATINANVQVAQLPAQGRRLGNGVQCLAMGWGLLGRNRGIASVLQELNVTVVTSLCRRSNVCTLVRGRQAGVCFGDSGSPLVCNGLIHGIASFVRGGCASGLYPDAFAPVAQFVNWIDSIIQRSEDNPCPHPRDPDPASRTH
Procedure: The enzymatic substrate elastin-rhodamine is dissolved in TrisHCl buffer (31.52 g of TrisHCl, water qsp 1000 ml) of pH 8.8 at a rate of 15 mg/ml. 1 mg of human leukocytic elastase is dissolved in 20 ml of TrisHCl buffer. The products of the invention are evaluated for their capacity to inhibit the degradation of elastin, which can be followed by fluorescence (excitation at 530 nm; emission at 590 nm) after the incubation, for 20 min at 37° C., of a mixture comprising the substrate, the enzyme and the inhibitor to be tested. The results are given as % inhibition relative to the inhibitor-free control.

[5] = Oxidation stability test on flavonoids in simple preparations (color of solutions); assay type: physicochemical; conditions: 0.103 M in ethoxydiglycol, Pantone color
Procedure: A solution of […] containing 31.1 g/l (i.e. 0.103 M) is prepared in ethoxy-diglycol. The pH is adjusted to 5 or 6 and then 10 g/l of a preservative based on parabens are added to the mixture in order to avoid bacterial pollution. […] At identical molar concentrations, the two products are therefore compared for their oxidation stability, the color parameters being used as the stability indicators. The color references given in the Examples which follow refer to the Pantone colors as used in all the paint color charts well known to those skilled in the art.

[6] = test concentration 1.03^−3 mol/l
[7] = test concentration 1.03^−4 mol/l
[8] = test concentration 1.03^−5 mol/l

Compound: CCCC(=O)Oc1cc(OC(=O)CCC)c2c(c1)OC(c1ccc(OC)c(OC(=O)CCC)c1)CC2=O (stereo not shown) [Example 12, hesperitin triacylated by C4]
Skin irritation [1]: did not cause any irritation phenomena

Stability test: color of cream, T 1 day ([2]; 520 μM in cream (emulsion)): light beige
Stability test: color of cream, T 7 days ([2]; 520 μM in cream (emulsion)): yellow
Stability test: color of cream, T 25 days ([2]; 520 μM in cream (emulsion)): yellow
Stability test: color of cream, T 35 days ([2]; 520 μM in cream (emulsion)): yellow
Stability test: color of cream, T 1 day ([2]; 1043 μM in cream (emulsion)): more
Stability test: color of cream, T 7 days ([2]; 1043 μM in cream (emulsion)): very yellow
Stability test: color of cream, T 25 days ([2]; 1043 μM in cream (emulsion)): very yellow
Stability test: color of cream, T 35 days ([2]; 1043 μM in cream (emulsion)): very yellow
% free radical inhibiting activity ([3]; 0.103 mol/l): 94%
% free radical inhibiting activity ([3]; 1.03^−3 mol/l): 28%
% free radical inhibiting activity ([3]; 1.03^−5 mol/l): 8%
Anti-elastase test: % inhibition relative to the inhibitor-free control [4, 6]: 20%
Anti-elastase test: % inhibition relative to the inhibitor-free control [4, 7]: 24%
Anti-elastase test: % inhibition relative to the inhibitor-free control [4, 8]: 0%
Color of the solutions 1 day after manufacture ([5]; pH 5, 4° C.): 157C
Color of the solutions 21 days after manufacture ([5]; pH 5, 4° C.): black +
Color of the solutions 1 day after manufacture ([5]; pH 5, 20° C.): 157C
Color of the solutions 21 days after manufacture ([5]; pH 5, 20° C.): black +
Color of the solutions 1 day after manufacture ([5]; pH 5, 45° C.): 157C
Color of the solutions 21 days after manufacture ([5]; pH 5, 45° C.): black +
Color of the solutions 1 day after manufacture ([5]; pH 6, 4° C.): 157C
Color of the solutions 21 days after manufacture ([5]; pH 6, 4° C.): black +
Color of the solutions 1 day after manufacture ([5]; pH 6, 20° C.): 157C
Color of the solutions 21 days after manufacture ([5]; pH 6, 20° C.): black +
Color of the solutions 1 day after manufacture ([5]; pH 6, 45° C.): 157C
Color of the solutions 21 days after manufacture ([5]; pH 6, 45° C.): black +
Compound: COc1ccc([C@@H]2CC(=O)c3c(O)cc(O)cc3O2)cc1O [Hesperitin, hesperitin]
Free radical inhibiting activity [3]: 42%

Anti-elastase test: % inhibition relative to the inhibitor-free control ([4]; test concentration 0.103 mol/l): 100%
Anti-elastase test: % inhibition relative to the inhibitor-free control [4, 6]: 50%
Anti-elastase test: % inhibition relative to the inhibitor-free control [4, 7]: 36%
Anti-elastase test: % inhibition relative to the inhibitor-free control [4, 8]: 34%
Compound: Hesperitin monoacylated by C12 [Example 7]

Compound: hesperitin diacylated by C12 [Example 6]
Free radical inhibiting activity [3]: 67%
Anti-elastase test: % inhibition relative to the inhibitor-free control ([4]; test concentration 0.103 mol/l): 100%
Anti-elastase test: % inhibition relative to the inhibitor-free control [4, 6]: 65%
Anti-elastase test: % inhibition relative to the inhibitor-free control [4, 8]: 29%

Compound: hesperitin triacylated by C18:2 [Example 15]
Skin irritation [1]: did not cause any irritation phenomena
